Assay results: patent publication US12624050B2, “Three fused ring derivative-containing salt or crystal form and pharmaceutical composition thereof” (Shanghai Hansoh Biomedical Co., Ltd., priority 2019, dated 2026)

Columns and labels:
[1] = biological target: T1, PI3Kβ (Homo sapiens, UniProt P42338); test: ADP-Glo Lipid Kinase Assay, PI3Kβ kinase activity; assay type: biochemical; conditions: ratio of IC50 values
T1 construct: purchased Carna #11-102
Description: (§1) In this experiment, ADP-Glo Lipid Kinase Assay (Promega #V9102) from Promega was used. The lipid kinases PI3Kα/β/γ/δ catalyzed the ATP-to-ADP reaction in the presence of the substrate PIP2:3PS and ATP. The lipid kinase activity was characterized by measuring the ADP content in the reaction, and the half inhibition concentrations IC50 of the compounds on PI3Kα/β/γ/δ kinase activity were obtained.
(§2) Kinase reactions were carried out in white 384-well plates (Perkin Elmer #6007299). 2 μL of the compound of various concentrations diluted with ddH2O containing 1% DMSO was added to each well, and 2 μL of ddH2O containing 1% DMSO was added to positive control wells. Then 2 μL of 0.1 to 2 nM PI3K kinase solution diluted with 5× kinase buffer (HEPES 250 mM, MgCl2 15 mM, NaCl 250 mM, BSA 0.05%) was added to each well, and 2 μL of 5× kinase buffer was added to the negative control wells. 4 μL of 50 μM substrate PIP2:3PS (Promega #V1701) prepared with 10× Dilution buffer and ddH2O was added to all wells. Finally, 2 μL of 50 to 100 μM ATP solution diluted with water was added to start the reaction. After the reaction was carried out at room temperature for 90 to 120 minutes, 10 µL of ADP-Glo Reagent (containing 10 mM MgCl2) was added to each well, and the reaction was carried out at room temperature for 60 minutes to eliminate excess adenosine triphosphate (ATP) in the reaction. Then 20 μL of Kinase Detection Reagent was added to each well. After the reaction was carried out for 20 minutes at room temperature in the dark, the chemiluminescence was measured by BioTek Synergy H1 microplate reader.
(§3) The percentage inhibition data of the compound-treated well was calculated from positive control wells (DMSO control wells) and negative control wells (no kinase added) on the plate {% inhibition=100−[(test compound value−negative control value)]/(positive control value-negative control value)×100}. IC50 values were calculated using GraphPad prism and using a four-parameter nonlinear logistic formula to fit the data of different concentrations and corresponding percent inhibition.

[2] = biological target: T2, PI3Kγ (Homo sapiens, UniProt P48736); test: ADP-Glo Lipid Kinase Assay, PI3Kγ kinase activity; assay type: biochemical; conditions: ratio of IC50 values
T2 construct: purchased Thermofisher #PV4786
T2 sequence (P48736 whole entry): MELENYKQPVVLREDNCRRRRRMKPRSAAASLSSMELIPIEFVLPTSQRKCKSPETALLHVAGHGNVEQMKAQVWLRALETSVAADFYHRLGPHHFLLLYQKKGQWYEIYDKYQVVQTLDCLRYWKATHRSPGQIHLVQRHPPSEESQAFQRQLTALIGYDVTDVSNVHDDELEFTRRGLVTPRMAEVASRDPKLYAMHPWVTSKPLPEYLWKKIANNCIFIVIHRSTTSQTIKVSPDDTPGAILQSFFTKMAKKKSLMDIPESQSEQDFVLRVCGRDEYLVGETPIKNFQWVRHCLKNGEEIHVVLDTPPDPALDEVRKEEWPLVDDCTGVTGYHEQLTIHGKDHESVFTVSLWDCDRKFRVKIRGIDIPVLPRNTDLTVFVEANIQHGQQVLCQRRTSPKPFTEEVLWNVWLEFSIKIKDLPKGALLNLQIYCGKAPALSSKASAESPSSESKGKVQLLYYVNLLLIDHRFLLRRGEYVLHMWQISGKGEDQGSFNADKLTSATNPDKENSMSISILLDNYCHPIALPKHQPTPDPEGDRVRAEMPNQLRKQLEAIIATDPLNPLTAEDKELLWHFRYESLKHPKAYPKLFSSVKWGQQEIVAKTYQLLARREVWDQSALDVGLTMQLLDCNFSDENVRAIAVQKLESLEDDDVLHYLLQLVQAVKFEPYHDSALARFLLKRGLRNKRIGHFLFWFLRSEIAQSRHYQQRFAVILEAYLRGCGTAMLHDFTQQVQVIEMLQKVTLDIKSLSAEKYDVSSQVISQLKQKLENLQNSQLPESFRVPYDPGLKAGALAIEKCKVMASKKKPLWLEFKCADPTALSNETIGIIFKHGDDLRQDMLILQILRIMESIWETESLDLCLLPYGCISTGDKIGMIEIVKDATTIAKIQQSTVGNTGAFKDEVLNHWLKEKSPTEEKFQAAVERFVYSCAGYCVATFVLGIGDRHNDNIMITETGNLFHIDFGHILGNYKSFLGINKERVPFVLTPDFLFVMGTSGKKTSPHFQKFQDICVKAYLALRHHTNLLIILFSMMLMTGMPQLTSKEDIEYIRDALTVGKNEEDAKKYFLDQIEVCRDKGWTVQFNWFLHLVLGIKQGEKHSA
Description: as §1, §2, §3

[3] = biological target: T3, PI3Kδ (Homo sapiens, UniProt O00329); test: ADP-Glo Lipid Kinase Assay, PI3Kδ kinase activity; assay type: biochemical; conditions: ratio of IC50 values
T3 construct: purchased Carna #11-103
T3 sequence (O00329 whole entry): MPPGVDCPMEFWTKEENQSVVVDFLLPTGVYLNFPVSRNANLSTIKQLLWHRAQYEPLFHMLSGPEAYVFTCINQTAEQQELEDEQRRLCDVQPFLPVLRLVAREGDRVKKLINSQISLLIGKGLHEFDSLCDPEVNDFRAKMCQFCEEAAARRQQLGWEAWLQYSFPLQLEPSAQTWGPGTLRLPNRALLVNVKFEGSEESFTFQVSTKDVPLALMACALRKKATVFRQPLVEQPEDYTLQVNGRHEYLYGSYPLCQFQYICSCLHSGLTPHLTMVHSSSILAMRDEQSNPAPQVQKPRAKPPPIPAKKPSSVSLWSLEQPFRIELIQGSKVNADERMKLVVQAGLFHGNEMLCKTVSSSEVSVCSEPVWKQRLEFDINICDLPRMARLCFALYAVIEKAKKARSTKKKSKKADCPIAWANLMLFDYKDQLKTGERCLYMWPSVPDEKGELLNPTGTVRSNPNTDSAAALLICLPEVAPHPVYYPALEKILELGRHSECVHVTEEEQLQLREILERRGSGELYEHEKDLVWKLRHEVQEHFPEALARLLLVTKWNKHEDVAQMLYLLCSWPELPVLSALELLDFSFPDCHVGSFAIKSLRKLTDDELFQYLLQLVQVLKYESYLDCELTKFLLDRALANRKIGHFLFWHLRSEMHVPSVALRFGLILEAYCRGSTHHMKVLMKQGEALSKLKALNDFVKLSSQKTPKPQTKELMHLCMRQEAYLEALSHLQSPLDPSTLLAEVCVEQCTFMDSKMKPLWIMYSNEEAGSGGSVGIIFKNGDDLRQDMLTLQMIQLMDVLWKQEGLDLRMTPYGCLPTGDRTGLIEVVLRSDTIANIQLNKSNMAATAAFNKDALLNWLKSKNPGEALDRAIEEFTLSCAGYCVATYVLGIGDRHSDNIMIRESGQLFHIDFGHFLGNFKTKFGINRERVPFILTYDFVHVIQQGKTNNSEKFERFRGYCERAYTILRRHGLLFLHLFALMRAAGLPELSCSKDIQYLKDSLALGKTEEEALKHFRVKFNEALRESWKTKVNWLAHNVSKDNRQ
T3 sequence (P27986 whole entry partner): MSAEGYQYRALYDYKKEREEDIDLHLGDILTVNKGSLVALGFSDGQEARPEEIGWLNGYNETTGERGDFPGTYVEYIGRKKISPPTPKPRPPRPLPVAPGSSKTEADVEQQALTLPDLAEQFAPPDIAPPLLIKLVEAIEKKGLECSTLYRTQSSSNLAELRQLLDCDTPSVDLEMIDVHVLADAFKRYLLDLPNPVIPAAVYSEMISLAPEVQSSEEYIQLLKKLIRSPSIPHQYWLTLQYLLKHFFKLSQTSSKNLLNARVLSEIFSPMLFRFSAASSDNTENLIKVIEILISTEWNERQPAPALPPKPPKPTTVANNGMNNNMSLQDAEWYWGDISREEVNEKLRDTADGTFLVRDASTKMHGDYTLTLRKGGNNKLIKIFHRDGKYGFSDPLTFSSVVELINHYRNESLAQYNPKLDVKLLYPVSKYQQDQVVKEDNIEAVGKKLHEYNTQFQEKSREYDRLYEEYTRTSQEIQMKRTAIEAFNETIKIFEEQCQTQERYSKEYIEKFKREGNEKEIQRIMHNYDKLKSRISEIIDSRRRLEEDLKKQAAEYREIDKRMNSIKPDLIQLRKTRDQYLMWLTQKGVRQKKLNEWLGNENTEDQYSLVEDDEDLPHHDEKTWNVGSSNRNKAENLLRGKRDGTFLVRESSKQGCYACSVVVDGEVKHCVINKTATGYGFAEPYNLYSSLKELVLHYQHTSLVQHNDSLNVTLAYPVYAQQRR
Description: as §1, §2, §3

[4] = system: HCC1954 (H1047R); test: Proliferation inhibition of PI3Kα mutant cancer cells, Cell Titer-Glo, HCC1954; assay type: cell-based; conditions: Homo sapiens
Description: (§4) The proliferation inhibitory effect of the compounds of the examples on the PI3Kα mutant cancer cell lines (HCC1954, HGC-27 and MKN1) was detected by Cell Titer-Glo method. Cell lines were cultured in RPMI 1640 medium (Gibco #22400089) containing 10% FBS (Gibco #10091148) and 1% P/S (Hyclone #SV30010) under the condition of 37° C. and 5% CO2. The cells were collected before the experiment, and the cell density was adjusted after cell counting. The cells were seeded in a white 96-well plate (Corning #3610) at a density of 1000 to 10000 cells/well, and incubated in an incubator at 37° C. and 5% CO2 overnight. The prepared compound solutions of different concentrations and the corresponding solvent controls were added to the plate. The plate was again incubated in an incubator at 37° C. and 5% CO2 for 48 to 96 hours. Then the cell plate and its contents were equilibrated to room temperature. 20 to 100 μL of Cell Titer-Glo solution (Promega #G7573) was added to each well, and the plate was shaken and mixed well, then incubated at room temperature for 5 to 30 minutes in the dark. The chemiluminescence was measured by a SynergyH1 microplate reader from BioTek.
(§5) The percentage inhibition data of the compound-treated well was calculated from solvent control wells on the plate {% inhibition=100−([…])×100}. IC50 values were calculated using GraphPad prism and using a four-parameter nonlinear logistic formula to fit the data of different concentrations and corresponding percent inhibition.

[5] = system: MKN1 (E545K); test: Proliferation inhibition of PI3Kα mutant cancer cells, Cell Titer-Glo, MKN1; assay type: cell-based; conditions: Homo sapiens, MKN-1
Description: as §4, §5

[6] = system: HGC-27 (E542K); test: Proliferation inhibition of PI3Kα mutant cancer cells, Cell Titer-Glo, HGC-27; assay type: cell-based; conditions: Homo sapiens
Description: as §4, §5

[7] = system: HCC1954 cell; test: In vivo efficacy test, HCC1954 tumor-bearing nude mice; set-up: species or system BALB/c nude mice; conditions: oral, 10 mg/kg, once/day, 21 days (Example 22: 19 days)
Description: • a. A strain of HCC1954 cell was taken from the cell bank, recovered with RPMI-1640 medium (RPMI-1640+10% FBS+1% SP), plated in a cell culture flask (cell type, date, name of the experimenter and the like were labeled on the wall of the flask) and cultured in a CO2 incubator (the temperature was 37° C. and the CO2 concentration was 5% in the incubator). • b. Cells were passaged when they covered 80 to 90% of the bottom of the culture flask. After passage, the cells continued to be cultured in the CO2 incubator. This process was repeated until the number of cells was sufficient for the in vivo efficacy test. • c. The cultured cells were collected and counted with an automatic cell counter, and then resuspended with PBS and Matrigel Matrix according to the counting results to prepare a cell suspension (density 5×10^7/mL), which was placed in an ice box for use. 4.3.2 Cell Inoculation • a. The nude mice were labeled with disposable universal ear tags for rats and mice before inoculation. • b. During the inoculation, the cell suspension was mixed well. 0.1 to 1 mL of the cell suspension was drawn with a 1 mL syringe, air bubbles were removed, and then the syringe was placed on an ice pack for use. • c. The nude mouse was bound with the left hand. The position on the right side of the back close to the right shoulder of the nude mouse (inoculation site) was disinfected with 75% alcohol. Inoculation started after 30 seconds. • d. The test nude mice were successively inoculated (each mouse was inoculated with 0.1 mL of cell suspension). 4.3.3 Tumor Measurement, Grouping and Administration of Tumor-Bearing Mice • a. According to the tumor growth, the tumors was measured on 14 to 18 days after inoculation, and the tumor size was calculated. Calculation of tumor volume: tumor volume (mm^3)=length (mm)×width (mm)×width (mm)/2 • b. The tumor-bearing mice were grouped according to their body weight and tumor size by random grouping. • c. The test compounds were administered according to the grouping results (administration route: oral administration; administration dose: 10 mg/kg; administration volume: 10 mL/kg; administration frequency: once/day; administration cycle: 21 days; vehicle: 0.5% CMC/1% Tween 80). • d. Tumors were measured and weighed twice a week after the administration of test compounds began. • e. Animals were euthanized at the end of the experiment. • f. Data were processed by using softwares such as Excel. […] When the tumor regress, TGI (%)=[1−(average tumor volume of the treatment group at the end of the administration−average tumor volume of the treatment group at the beginning of the administration)/average tumor volume of the treatment group at the beginning of the administration]×100%.

[8] = system: SD rats; test: Toxicity test of a 7-day repeatedly intragastric administration in SD rats; assay type: in vivo; conditions: SD rats, intragastric once/day, 7 days
Source text: • Test compound 1: GDC-0077 • Test compound 2: the compounds of Example 22 and Example 62 3.2.2 Vehicle • Name: 20% aqueousSBE-β-CD (Captisol) solution 3.2.3 Animal Information • Species & strains: Sprague-Dawley (SD) rat • Animal grade: SPF grade • Number and sex of animals: 160 rats, half male and half female. 3.2.4 Instruments • The ADVIA®2120 series Hematology System with Autoslide was used for blood cell counting; • The SYSMEX CA-500 Coagulation Analyzer was used for the detection of coagulation function indicators; • The TBA-120FR Automated Biochemical Analyzer was used for the detection of blood biochemical indicators; • The Easylyte Electrolyte Analyzer was used for the detection of electrolytes; • The liquid mass spectrometry detector model API4000; • The electron spray ionization (ESI) positive ion mode and column type Agilent ZORBAX XDB-C18 (3.5 μm, 2.1×50 mm) were used for bioanalytical detection of plasma samples. 3.3 Experimental Method • 1) In the experiment, 160 rats (80 rats/sex) were divided into 20 groups according to their sex and body weight, wherein 100 rats were used for toxicology study (groups 1 to 10, 5 rats/sex/group) and 60 rats were used for toxicokinetic study (groups 11 to 20, 3 rats/sex/group); • 2) As the vehicle control group, the animals in groups 1 and 11 were intragastrically administered 20% aqueous SBE-β-CD (Captisol) solution; • 3) The animals in groups 2 and 12, groups 3 and 13, and groups 4 and 14 were intragastrically administered 10, 30 and 60 mg/kg of GDC-0077, respectively; • 4) The animals in groups 5 and 15, groups 6 and 16, and groups 7 and 17 were intragastrically administered 10, 30 and 60 mg/kg of the compound of Example 22, respectively; • 5) The animals in groups 8 and 18, groups 9 and 19, groups 10 and 20 were intragastrically administered 10, 30 and 60 mg/kg of the compound of Example 62, respectively; • 5) The animals were administered once a day for 7 consecutive days (the animals in groups 7, 17, 10 and 20 were administered for 6 consecutive days). • 6) The administration volume was 10 mL/kg. • 7) During the experiment, items such as clinical observation, body weight, food intake, clinicopathological indicators (blood cell count, coagulation function, blood biochemistry), toxicokinetics and the like were studied. • 8) All animals were euthanized on Day 8 (the animals in groups 7, 10, 17 and 20 were euthanized after administration on Day 6). • 9) During the experiment, gross anatomical observation was performed on the animals in groups 1 to 10, animals in groups 17 and 20, and dead animals (including animals in toxicological study). Histopathological examination was performed on abnormal tissues, gastrointestinal tissues (such as colon, cecum) and immune tissues (such as thymus). […]

[9] = Stability experiment of the solids (60°C, RH 95%, light), HPLC; assay type: physicochemical; conditions: light condition (5000 lx) for 10 days
Description: About 2 mg of crystal form A of mesylate salt, crystal form C of sulfate salt and crystal form A of ethanesulfonate salt of (S)-2-((2-((R)-4-(difluoromethyl)-2-oxothiazolidin-3-yl)-5,6-dihydrobenzo[f]imidazo[1,2-d][1,4]oxazepin-9-yl)amino)propionamide was placed in a sealed oven at 60° C., in an unsealed container at room temperature under RH 95% (saturated aqueous KNO3 solution) and in a light box (5000 lx±500 lx) and observed for 5 days and 10 days. The content of salt was determined by HPLC using the external standard method. Changes of related substance of salt in substances related to the salts were calculated by normalization of chromatography peak area.

T1 sequence (P42338 whole entry): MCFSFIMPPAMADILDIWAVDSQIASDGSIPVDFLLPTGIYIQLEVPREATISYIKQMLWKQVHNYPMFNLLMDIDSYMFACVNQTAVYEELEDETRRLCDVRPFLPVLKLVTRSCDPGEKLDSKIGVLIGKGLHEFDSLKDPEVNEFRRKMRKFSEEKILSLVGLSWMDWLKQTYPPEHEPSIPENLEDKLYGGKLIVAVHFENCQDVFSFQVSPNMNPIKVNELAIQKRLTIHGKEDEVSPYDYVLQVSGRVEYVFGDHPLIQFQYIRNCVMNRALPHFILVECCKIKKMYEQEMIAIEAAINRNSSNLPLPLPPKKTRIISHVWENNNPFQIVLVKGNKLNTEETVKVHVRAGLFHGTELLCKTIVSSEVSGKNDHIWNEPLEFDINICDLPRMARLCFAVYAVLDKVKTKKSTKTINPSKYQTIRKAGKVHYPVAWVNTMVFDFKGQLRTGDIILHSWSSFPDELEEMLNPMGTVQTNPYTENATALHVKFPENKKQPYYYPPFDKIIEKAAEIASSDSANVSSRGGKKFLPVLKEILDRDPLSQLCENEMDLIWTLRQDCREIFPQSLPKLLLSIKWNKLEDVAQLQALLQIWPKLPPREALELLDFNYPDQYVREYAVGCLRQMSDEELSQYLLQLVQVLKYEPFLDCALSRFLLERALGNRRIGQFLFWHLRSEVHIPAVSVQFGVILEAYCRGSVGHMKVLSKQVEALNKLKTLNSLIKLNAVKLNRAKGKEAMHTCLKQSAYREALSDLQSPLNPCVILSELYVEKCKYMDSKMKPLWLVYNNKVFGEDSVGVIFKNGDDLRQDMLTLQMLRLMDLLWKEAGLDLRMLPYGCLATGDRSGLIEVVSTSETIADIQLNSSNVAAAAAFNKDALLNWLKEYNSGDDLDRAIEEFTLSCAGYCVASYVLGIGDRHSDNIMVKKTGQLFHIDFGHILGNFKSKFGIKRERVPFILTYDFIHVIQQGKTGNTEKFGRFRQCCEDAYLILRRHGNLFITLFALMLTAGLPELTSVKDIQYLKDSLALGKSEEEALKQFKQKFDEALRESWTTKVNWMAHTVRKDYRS
T1 sequence (P27986 whole entry partner): as the sequence (P27986 whole entry partner) above

Row | Structure (SMILES) | Selectivity of PI3Kα vs PI3Kβ [1] | Selectivity of PI3Kα vs PI3Kγ [2] | Selectivity of PI3Kα vs PI3Kδ [3] | IC50 [4] | IC50 [5] | IC50 [6] | Tumor growth inhibition rate [7] | lethal dose [8] | increase of new impurity compared with 0 days [9]
1 | C[C@H](Nc1ccc2c(c1)OCCn1cc(N3C(=O)O[C@H](C)[C@H]3C(F)F)nc1-2)C(N)=O [Example 25, (S)-2-((2-((4S,5R)-4-(difluoromethyl)-5-methyl-2-oxooxazolidin-3-yl)-5,6-dihydrobenzo[f]imidazo[1,2-d][1,4]oxazepin-9-yl)amino)propionamide] | 1499 | 401 | 280 | 0.079 µM | 0.084 µM | 0.093 µM | 120% | – | –
2 | C[C@H](Nc1ccc2c(c1)OCCn1cc(N3C(=O)OC[C@H]3C(F)F)nc1-2)C(N)=O [GDC-0077, reference compound] | – | – | – | – | – | – | – | 60 mg/kg | –
3 | C[C@H](Nc1ccc2c(c1)OCCn1cc(N3C(=O)SC[C@H]3C(F)F)nc1-2)C(N)=O.O=S(=O)(O)O [crystal form C of sulfate salt, (S)-2-((2-((R)-4-(difluoromethyl)-2-oxothiazolidin-3-yl)-5,6-dihydrobenzo[f]imidazo[1,2-d][1,4]oxazepin-9-yl)amino)propionamide] | – | – | – | – | – | – | – | – | 0.172%

Further lines, with some results ahead:

Row | Selectivity of PI3Kα vs PI3Kβ [1] | Selectivity of PI3Kα vs PI3Kγ [2] | Selectivity of PI3Kα vs PI3Kδ [3] | IC50 [4] | IC50 [5] | IC50 [6] | Structure (SMILES) | Tumor growth inhibition rate [7] | lethal dose [8] | increase of new impurity compared with 0 days [9]
4 | 197 | 103 | 81 | 0.098 µM | 0.118 µM | 0.233 µM | C[C@H](Nc1ccc2c(c1F)OCCn1cc(N3C(=O)SC[C@H]3C(F)F)nc1-2)C(N)=O [Example 50, (S)-2-((2-((R)-4-(difluoromethyl)-2-oxothiazolidin-3-yl)-8-fluoro-5,6-dihydrobenzo[f]imidazo[1,2-d][1,4]oxazepin-9-yl)amino)propionamide] | 96% | – | –
5 | 754 | 376 | 139 | 0.057 µM | 0.109 µM | 0.137 µM | COC[C@H](Nc1ccc2c(c1)OCCn1cc(N3C(=O)SC[C@H]3C(F)F)nc1-2)C(N)=O [Example 52, (S)-2-((2-((R)-4-(difluoromethyl)-2-oxothiazolidin-3-yl)-5,6-dihydrobenzo[f]imidazo[1,2-d][1,4]oxazepin-9-yl)amino)-3-methoxypropionamide] | 98% | – | –
